Measurements from ChEMBL document CHEMBL1148830, “Discovery and investigation of antiproliferative and apoptosis-inducing properties of new heterocyclic podophyllotoxin analogues accessible by a one-step multicomponent synthesis” (2007).
Calls of active or inactive are those of the source. No cut-off for these calls is given here.

Legend:
[1] = Antiproliferative activity against human MCF7/AZ cells assessed as cell viability at 5 uM after 48 hrs by MTT assay relative to control; format: functional; details: read-out: Activity
Jurkat [2] = assay: Antiproliferative activity against human Jurkat cells assessed as cell viability at 5 uM after 48 hrs by MTT assay; format: functional; details: read-out: Activity
Jurkat [3] = assay: Induction of apoptosis in Jurkat cells assessed as cell viability at 5 uM after 48 hrs by flow cytometry Annexin-V/propidium iodide assay; format: functional; details: Homo sapiens, read-out: Activity
HeLa [4] = assay: Antiproliferative activity against HeLa cells assessed as cell viability at 5 uM after 48 hrs by MTT assay relative to control; format: functional; details: Homo sapiens, read-out: Activity
Lymphocyte = assay: Induction of apoptosis in human whole blood lymphocytes after 24 hrs by flow cytometric Annexin-V/propidium iodide assay; format: functional, cell-based
Jurkat [5] = assay: Increase in caspase 3 activation in Jurkat cells at 5 uM; format: functional, Homo sapiens
HeLa [6] = assay: Growth inhibition of HeLa cells after 48 hrs by MTT assay; format: functional; details: Homo sapiens
Jurkat [7] = assay: Induction of apoptosis in Jurkat cells after 24 hrs by flow cytometric Annexin-V/propidium iodide assay; format: functional, cell-based; details: Homo sapiens

SMILES: COc1cc(C2C3=C(COC3=O)Nc3[nH]nc(C)c32)cc([N+](=O)[O-])c1O (stereo not given)
- viability at 5 µM [1]: 89%
- viability at 5 µM (Jurkat [2]): 90%
- viability at 5 µM (Jurkat [3]): 5%
- viability at 5 µM (HeLa [4]): 78%

SMILES: Cc1n[nH]c2c1C(c1ccc(OC(F)(F)F)cc1)C1=C(COC1=O)N2 (stereo not given)
- viability at 5 µM [1]: 84%
- viability at 5 µM (Jurkat [2]): 97%
- viability at 5 µM (Jurkat [3]): 9%
- viability at 5 µM (HeLa [4]): 97%

SMILES: COc1cc(C2C3=C(COC3=O)Nc3c2c(C)nn3-c2ccc(C)cc2)cc(OC)c1OC (stereo not given)
- viability at 5 µM [1]: 71%
- viability at 5 µM (Jurkat [2]): 77%
- viability at 5 µM (Jurkat [3]): 23%
- viability at 5 µM (HeLa [4]): 77%

SMILES: Cc1nc2ccccc2nc1C1C2=C(COC2=O)Nc2[nH]nc(C)c21 (stereo not given)
- viability at 5 µM [1]: 100%
- viability at 5 µM (Jurkat [2]): 97%
- viability at 5 µM (Jurkat [3]): 11%
- viability at 5 µM (HeLa [4]): 72%

SMILES: COc1cc(C2C3=C(COC3=O)Nc3[nH]nc(C)c32)cc(Br)c1OC (stereo not given)
- viability at 5 µM [1]: 47%
- Activity (Lymphocyte): inactive
- viability at 5 µM (Jurkat [2]): 29%
- Fold change (Jurkat [5]): 3
- viability at 5 µM (Jurkat [3]): 56%
- GI50 (HeLa [6]): 0.75 µM
- viability at 5 µM (HeLa [4]): 16%

SMILES: COc1cc(C2C3=C(COC3=O)Nc3c2c(C)nn3C(C)C)cc(OC)c1OC (stereo not given)
- viability at 5 µM [1]: 99%
- viability at 5 µM (Jurkat [2]): 77%
- viability at 5 µM (Jurkat [3]): 4%
- viability at 5 µM (HeLa [4]): 83%

SMILES: C=C(C)[C@@H]1CC=C(C2C3=C(COC3=O)Nc3[nH]nc(C)c32)CC1 (stereo not given in full)
- viability at 5 µM [1]: 91%
- viability at 5 µM (Jurkat [2]): 89%
- viability at 5 µM (Jurkat [3]): 14%
- viability at 5 µM (HeLa [4]): 95%

SMILES: Cc1n[nH]c2c1C(c1ccc(Cl)c(Cl)c1)C1=C(COC1=O)N2 (stereo not given)
- viability at 5 µM [1]: 56%
- viability at 5 µM (Jurkat [2]): 71%
- viability at 5 µM (Jurkat [3]): 33%
- viability at 5 µM (HeLa [4]): 88%

SMILES: Cc1n[nH]c2c1C(c1cccc(F)c1)C1=C(COC1=O)N2 (stereo not given)
- viability at 5 µM [1]: 76%
- viability at 5 µM (Jurkat [2]): 84%
- viability at 5 µM (Jurkat [3]): 28%
- viability at 5 µM (HeLa [4]): 99%

SMILES: CCOc1c(Br)cc(C2C3=C(COC3=O)Nc3[nH]nc(C)c32)cc1OC (stereo not given)
- viability at 5 µM [1]: 49%
- Activity (Lymphocyte): inactive
- viability at 5 µM (Jurkat [2]): 28%
- Fold change (Jurkat [5]): 3
- viability at 5 µM (Jurkat [3]): 49%
- GI50 (HeLa [6]): 5 µM
- viability at 5 µM (HeLa [4]): 52%

SMILES: COc1cc(C2C3=C(COC3=O)Nc3[nH]nc(-c4ccc(Br)cc4)c32)cc(OC)c1OC (stereo not given)
- viability at 5 µM [1]: 98%
- viability at 5 µM (Jurkat [2]): 78%
- viability at 5 µM (Jurkat [3]): 5%
- viability at 5 µM (HeLa [4]): 67%

SMILES: Cc1n[nH]c2c1C(c1ccccc1Br)C1=C(COC1=O)N2 (stereo not given)
- viability at 5 µM [1]: 100%
- viability at 5 µM (Jurkat [2]): 90%
- viability at 5 µM (Jurkat [3]): 8%
- viability at 5 µM (HeLa [4]): 57%

SMILES: COc1ccc(C2C3=C(COC3=O)Nc3[nH]nc(C)c32)cc1 (stereo not given)
- viability at 5 µM [1]: 82%
- viability at 5 µM (Jurkat [2]): 94%
- viability at 5 µM (Jurkat [3]): 11%
- viability at 5 µM (HeLa [4]): 73%

SMILES: Cc1n[nH]c2c1C(c1cccs1)C1=C(COC1=O)N2 (stereo not given)
- viability at 5 µM [1]: 98%
- viability at 5 µM (Jurkat [2]): 74%
- viability at 5 µM (Jurkat [3]): 18%
- viability at 5 µM (HeLa [4]): 82%

SMILES: Cc1n[nH]c2c1C(c1ccncc1)C1=C(COC1=O)N2 (stereo not given)
- viability at 5 µM [1]: 100%
- viability at 5 µM (Jurkat [2]): 92%
- viability at 5 µM (Jurkat [3]): 4%
- viability at 5 µM (HeLa [4]): 94%

SMILES: COc1cc(C2C3=C(COC3=O)Nc3[nH]nc(C)c32)cc(Br)c1OC(C)=O (stereo not given)
- viability at 5 µM [1]: 46%
- Activity (Lymphocyte): inactive
- viability at 5 µM (Jurkat [2]): 36%
- Fold change (Jurkat [5]): 3
- viability at 5 µM (Jurkat [3]): 58%
- GI50 (HeLa [6]): 4 µM
- viability at 5 µM (HeLa [4]): 47%

SMILES: COc1ccc(C2C3=C(COC3=O)Nc3[nH]nc(C)c32)cc1OC (stereo not given)
- viability at 5 µM [1]: 95%
- viability at 5 µM (Jurkat [2]): 88%
- viability at 5 µM (Jurkat [3]): 5%
- viability at 5 µM (HeLa [4]): 73%

SMILES: Cc1n[nH]c2c1C(c1ccccc1)C1=C(COC1=O)N2 (stereo not given)
- viability at 5 µM [1]: 84%
- viability at 5 µM (Jurkat [2]): 87%
- viability at 5 µM (Jurkat [3]): 10%
- viability at 5 µM (HeLa [4]): 74%

SMILES: Cc1n[nH]c2c1C(c1ccsc1)C1=C(COC1=O)N2 (stereo not given)
- viability at 5 µM [1]: 100%
- viability at 5 µM (Jurkat [2]): 82%
- viability at 5 µM (Jurkat [3]): 6%
- viability at 5 µM (HeLa [4]): 98%

SMILES: COc1cc(C2C3=C(COC3=O)Nc3c2c(-c2ccc(Br)cc2)nn3-c2ccccc2)cc(OC)c1OC (stereo not given)
- viability at 5 µM [1]: 90%
- viability at 5 µM (Jurkat [2]): 99%
- viability at 5 µM (Jurkat [3]): 2%
- viability at 5 µM (HeLa [4]): 73%

SMILES: Cc1n[nH]c2c1C(c1ccc(Br)cc1)C1=C(COC1=O)N2 (stereo not given)
- viability at 5 µM [1]: 92%
- viability at 5 µM (Jurkat [2]): 90%
- viability at 5 µM (Jurkat [3]): 10%
- viability at 5 µM (HeLa [4]): 62%

SMILES: COc1cc2c(cc1OC)C(c1cc(OC)c(OC)c(OC)c1)C1=C(O)OCC1=N2 (stereo not given)
- viability at 5 µM [1]: 58%
- viability at 5 µM (Jurkat [2]): 35%
- viability at 5 µM (Jurkat [3]): 49%
- GI50 (HeLa [6]): 6 µM
- viability at 5 µM (HeLa [4]): 53%

SMILES: Cc1n[nH]c2c1C(c1c(C)nn(-c3ccccc3)c1Cl)C1=C(COC1=O)N2 (stereo not given)
- viability at 5 µM [1]: 100%
- viability at 5 µM (Jurkat [2]): 94%
- viability at 5 µM (Jurkat [3]): 6%
- viability at 5 µM (HeLa [4]): 58%

SMILES: Cc1n[nH]c2c1C(C)C1=C(COC1=O)N2 (stereo not given)
- viability at 5 µM [1]: 97%
- viability at 5 µM (Jurkat [2]): 78%
- viability at 5 µM (Jurkat [3]): 5%
- viability at 5 µM (HeLa [4]): 70%

SMILES: COc1cc(C2C3=C(COC3=O)Nc3cc4c(cc32)OCO4)cc(OC)c1OC (stereo not given)
- viability at 5 µM [1]: 52%
- viability at 5 µM (Jurkat [2]): 54%
- viability at 5 µM (Jurkat [3]): 55%
- GI50 (HeLa [6]): 6 µM
- viability at 5 µM (HeLa [4]): 54%

SMILES: COc1cc(C2C3=C(COC3=O)Nc3c2c(C)nn3C)cc(OC)c1OC (stereo not given)
- viability at 5 µM [1]: 98%
- viability at 5 µM (Jurkat [2]): 79%
- viability at 5 µM (Jurkat [3]): 5%
- viability at 5 µM (HeLa [4]): 55%

SMILES: CSc1ccc(C2C3=C(COC3=O)Nc3[nH]nc(C)c32)cc1 (stereo not given)
- viability at 5 µM [1]: 95%
- viability at 5 µM (Jurkat [2]): 87%
- viability at 5 µM (Jurkat [3]): 14%
- viability at 5 µM (HeLa [4]): 45%

SMILES: COc1cc2c(c(OC)c1)C(c1cc(OC)c(OC)c(OC)c1)C1=C(COC1=O)N2 (stereo not given)
- viability at 5 µM [1]: 43%
- viability at 5 µM (Jurkat [2]): 55%
- viability at 5 µM (Jurkat [3]): 55%
- viability at 5 µM (HeLa [4]): 55%

SMILES: Cc1n[nH]c2c1C(c1cccc(Br)c1)C1=C(COC1=O)N2 (stereo not given)
- viability at 5 µM [1]: 63%
- Activity (Lymphocyte): inactive
- viability at 5 µM (Jurkat [2]): 68%
- Fold change (Jurkat [5]): 3
- viability at 5 µM (Jurkat [3]): 58%
- GI50 (HeLa [6]): 5 µM
- viability at 5 µM (HeLa [4]): 51%
- Activity (Jurkat [7]): Active

SMILES: Cc1n[nH]c2c1C(c1ccc(N(C)C)c(Br)c1)C1=C(COC1=O)N2 (stereo not given)
- viability at 5 µM [1]: 59%
- Activity (Lymphocyte): inactive
- viability at 5 µM (Jurkat [2]): 34%
- Fold change (Jurkat [5]): 3
- viability at 5 µM (Jurkat [3]): 41%
- GI50 (HeLa [6]): 6 µM
- viability at 5 µM (HeLa [4]): 55%

SMILES: Cc1n[nH]c2c1C(c1cc(Br)c(O)c(Br)c1)C1=C(COC1=O)N2 (stereo not given)
- viability at 5 µM [1]: 60%
- Activity (Lymphocyte): inactive
- viability at 5 µM (Jurkat [2]): 58%
- Fold change (Jurkat [5]): 3
- viability at 5 µM (Jurkat [3]): 53%
- GI50 (HeLa [6]): 8 µM
- viability at 5 µM (HeLa [4]): 58%

SMILES: Cc1n[nH]c2c1C(c1ccccc1[N+](=O)[O-])C1=C(COC1=O)N2 (stereo not given)
- viability at 5 µM [1]: 99%
- viability at 5 µM (Jurkat [2]): 64%
- viability at 5 µM (Jurkat [3]): 6%
- viability at 5 µM (HeLa [4]): 71%

SMILES: Cc1n[nH]c2c1C(c1cccnc1)C1=C(COC1=O)N2 (stereo not given)
- viability at 5 µM [1]: 96%
- viability at 5 µM (Jurkat [2]): 88%
- viability at 5 µM (Jurkat [3]): 11%
- viability at 5 µM (HeLa [4]): 69%

SMILES: Cc1n[nH]c2c1C(c1cccc(Cl)c1)C1=C(COC1=O)N2 (stereo not given)
- viability at 5 µM [1]: 54%
- viability at 5 µM (Jurkat [2]): 76%
- Fold change (Jurkat [5]): 3
- viability at 5 µM (Jurkat [3]): 28%
- GI50 (HeLa [6]): 10 µM
- viability at 5 µM (HeLa [4]): 43%

SMILES: COc1cc2c(c(OC)c1OC)-c1ccc(OC)c(=O)cc1[C@@H](NC(C)=O)CC2
- Activity (Jurkat [5]; Homo sapiens): Active
